Experimental findings from a melting point compilation (Tetko et al.; mined from patent text by program, amines drawn as free bases though some values may be those of a salt) are described below.

Molecules are shown by their SMILES.

`CC(c1ccc(-c2ccccc2F)cc1)S(=O)CC(=O)N(C)C` (stereo unspecified) gave a melting point of 131 to 133 °C.
With `CCOC(=O)C1(C)C=C(O)c2c(sc3c2CCC2(C3)OCCO2)N1` (stereo unspecified) the figure was 94 to 95 °C; with `Cc1c(Cc2ccccc2)c(=O)n(C2CCCC2)c2nc(Nc3ccc(N4CCNCC4)cc3)ncc12`, 114 °C; with `COC(=O)c1cc(Br)ccc1O`, 59 to 61.5 °C.
The molecule `N#Cc1cccc(CNc2cc(C(N)=O)c([N+](=O)[O-])cc2[N+](=O)[O-])c1` showed a melting point of 228 to 230 °C.
The value for `COC(=O)C(C#N)=CC=Cc1cc([N+](=O)[O-])ccc1Cl` was 193 to 194 °C.
`O=C1CCC(c2ccc(-n3cnc4c3CCCC4)cc2)=NN1` yielded a melting point of 296 to 297 °C.
For the molecule `CCCNP(=O)(OC)N1CC(NC(=O)OCc2ccccc2)C1=O` (stereo unspecified), the melting point lay in the range of 121 to 123 °C.
The value for `Cc1c(NC(=O)NC(C)(C)CO)c(C)c2c(c1-c1ccccc1)OCC2c1ccc(C(C)C)cc1` (stereo unspecified) was 181 to 182 °C.
For `COc1ccc(CC(C)CC(C(=O)C(CC(C)Cc2ccc(OC)c(OC)c2)N2C(=O)c3ccccc3C2=O)N2C(=O)c3ccccc3C2=O)cc1OC` (stereo unspecified), the melting point turned out to be 128 °C.
Consider `COc1ccc(NC(=O)c2c(Cl)cccc2Cl)c2nccc(NN)c12`, for which the melting point is greater than 250 °C.
The value for `CCOC(=O)C(=O)c1cc(C)c(C(=O)c2ccccc2[N+](=O)[O-])n1C` was 138 to 140 °C; that for `CCOC(=O)C(Cc1ccccc1CCBr)(NC(C)=O)C(=O)OCC` was 86 to 86.5 °C; that for `CCCCN1C(=O)NC(=Cc2cc(OC)c(OC)cc2OC)C1=O` was 170 °C.
The value for `COC(=O)c1ccc(O)cc1NC(=O)c1ccc(C(C)(C)C)cc1` was 146 to 148 °C.
On to `O=C(O)CCCc1cc2nc(Cl)ccc2n1S(=O)(=O)c1ccc2nccnc2c1`, for which the melting point lay within 103 to 106 °C.
The value for `CN(C)C(=O)CNc1ccncc1[N+](=O)[O-]` was 142 to 143 °C; that for `CCCCc1ncc(/C=C(\Cc2ccc(N(C)C)cc2)C(=O)O)n1Cc1ccccc1Cl` was 171 to 172 °C.
With `CCCOCCOc1ccc(OCC(O)CNCCNC(N)=O)cc1` (stereo unspecified) the figure was 115 °C; with `CN1C(=O)[C@H](NC(=O)CCc2ccc(Cl)cc2Cl)N=C(c2ccccc2)c2cc(NS(C)(=O)=O)ccc21`, 130 to 148 °C.
With `CNS(=O)(=O)c1cc2c(c(C(=O)NCC3CCCN3C)c1)OCCO2` (stereo unspecified) the figure was 187 to 188 °C; with `CC(C)(C)OC(=O)NC(Cc1ccccc1)C(=O)NC(Cc1ccc(C(F)(F)F)cc1)C(O)c1ccc(F)cc1` (mixture of isomers), 230 to 231 °C; with `CCC1CC2C3CCC4=CC(=O)CCC4C3CCC2(C)C1O` (stereo unspecified), 150 to 152 °C.
As for `COc1cccc(C(CCCCCCc2ccccc2)CNC(=O)Cc2c(Cl)cncc2Cl)c1` (stereo unspecified), the melting point lay within 97 to 98 °C.
With `N#CCCNC(=O)c1n[nH]cc1NC(=O)c1ccc(-c2ccccc2)o1` the figure was 228 to 230 °C.
Consider `CC(=O)OC1CCC2(C)C(CCC3C2CCC2(C)C(N)C(O)CC32)C1` (stereo unspecified), for which the melting point was in the range of 192 to 193 °C.
The value for `CCOC(=O)CC[C@H](NC(=O)c1ccc(C(COC2CCCCO2)CC2CNc3nc(NC(=O)C(C)(C)C)nc(O)c3C2)cc1)C(=O)OCC` (stereo partly specified) was 183 to 186 °C; that for `CCOC(=O)Cc1nc(-c2ccc(Cl)cc2)oc1CC(C)C` was 56 to 57 °C; that for `CCCCCS(=O)(=O)NC(=O)/C=C/c1ccc(OCCOCCOC)cc1Oc1ncc(C(F)(F)F)cc1Cl` was 81 to 83 °C.
In turn, `CCN(c1ccccc1)C1CC(C)N(C(C)=O)c2ccc(-c3ccccc3)cc21` (stereo unspecified) came in with a melting point of 121 °C.
With `NS(=O)(=O)c1ccc(-n2nc(CCCNC(=O)Nc3cccc(C(F)(F)F)c3)cc2-c2ccccc2)cc1` the figure was 176 °C; with `CCCCOC1c2ccccc2C(=O)N(CC2CC2)C1(/C=C/C(=O)OCC)CNC(=O)OC(C)(C)C` (stereo unspecified), 166 to 167 °C; with `CCOC(=O)c1cnn(-c2ccc(-n3cc(OC)c(=O)c(-c4ccnn4-c4ccccc4)n3)c(F)c2)c1O`, 188 to 193 °C.
`O=C(O)Cc1c(C(=O)c2ccc(OCc3ccccc3)cc2)[nH]c2cc(Cl)ccc12` returned a melting point of 220 to 222 °C.
The value for `COc1cc(N)c(Cl)cc1C(=O)NCC1CCN(CCCCCN2C(=O)c3ccccc3C2=O)CC1` was 58 to 61 °C; that for `CS(=O)(=O)Nc1cccc(Nc2nc(OC3CCCC3)c3nc[nH]c3n2)c1` was 137 to 140 °C.
Consider `COc1cc(OC(C)(C)C(=O)O)c(-c2cccs2)cc1C=CC(=O)c1ccc(C(=O)O)cc1`, for which the melting point was in the range of 135 to 137 °C.
Take `Fc1cccc(Cl)c1-c1nn(-c2ccccc2Cl)c(=S)o1`: the melting point was in the range of 112 to 114 °C.
Regarding `CC(=O)NC[C@H]1CN(c2ccc(C(=O)c3cnc4c(Br)cc(C)cn34)cc2)C(=O)O1`, the melting point fell in the range of 221 to 223 °C.
`Cn1cc(C(=O)Nc2ccccc2-c2ccc(Cl)cc2Cl)c(C(F)(F)F)n1`: the melting point is 136 to 140 °C.
In the case of `CC(=O)c1ccc(-n2cnc(C)c2)cc1`, the melting point came out at 100 °C.
In turn, `Cc1c(C(=O)O)oc2cc(O)c(Cl)cc12` displayed a melting point of 279 to 280 °C.
With `Nc1c(Cl)cnc(OCCO)c1Cl` the figure was 77.5 to 81 °C; with `CCCc1nc2c(N)nc3ccccc3c2n1CC(C)(C)OCCS(C)(=O)=O`, 203 to 206 °C; with `O=C(Nc1cc2c3c(c1)CCCC3CCC2)c1ccc(C(=O)O)nc1`, 239 to 240 °C.
With `CC(=O)c1ccc(-c2ccc(F)cc2Br)cc1` the figure was 70 to 72 °C; with `COc1cc(OC)nc(C2(C#N)OC(=O)c3c(Cl)ccc(Cl)c32)n1` (stereo unspecified), 123 to 126 °C; with `Nc1ccccc1OC1CCCCC1`, 55 to 56 °C.
The value for `N#Cc1cccc(C=Cc2cccc(F)c2)n1` was 111 to 112 °C; that for `O=C1CCc2cc(Oc3ccc(F)cc3F)c([N+](=O)[O-])cc21` was 145 °C.
For the molecule `COc1ccc(CNc2cc(C(=O)Nc3ccccc3)ccc2OC)cc1`, the melting point lay within 173 to 174 °C.
Turning to `CS(=O)(=O)Nc1ccc(C(=O)c2ccccc2)cc1`, the melting point was 145 to 147 °C.
With `COc1ccc(N2CCN(c3c(C)c(C)c4c(c3C)CC3(CCCC3)O4)CC2)cc1` the figure was 137 to 139 °C.
With `CCCCOc1ccc(C(=O)N(C)Cc2cccc(-c3ccc(CC4SC(=O)NC4=O)cc3)c2)cc1` (stereo unspecified) the figure was 116 °C; with `CC(C)(Cc1c(C(C)(C)C)c2cc(OCc3ccc4ccccc4n3)ccc2n1Cc1ccc(Cl)cc1)C(=O)O`, 201 to 202 °C; with `CCSCc1c(S(C)(=O)=O)ccc(C(=O)O)c1Cl`, 172 to 174 °C.
With `CCC([O-])=C(C(=O)OCc1ccc([N+](=O)[O-])cc1)N1C(=O)CC1[N+](CC)(CC)CC` (stereo unspecified) the figure was 110 to 112 °C; with `CC(=O)N(C1(c2ccc(OCc3ccc4ccccc4n3)cc2)CCCC1)S(=O)(=O)c1ccccc1C`, 80 °C.
`O=C(c1ccccc1)c1ccc(N2CCCCC2)c([N+](=O)[O-])c1` had a melting point of 77 °C.
The molecule `COc1ccc(Cc2cnc(N)nc2N)cc1OCc1ccccc1` gave a melting point of 210 to 212 °C.
The value for `Nc1ncccc1OCC#CI` was 140 °C; that for `CC(C)(C)[C@H]1N(c2ccc(C#N)c3ccccc23)C(=O)[C@@H]2C[C@@H](OCc3ccccc3)CN21` was 155 to 157 °C.
`COCOc1ccc(Cl)c(F)c1C=O`: the melting point fell in the range of 44 to 49 °C.
For `Cc1nn(C)c2nc(N)c(-c3cccc(Cl)c3)nc12`, the melting point lay in the range of 224 to 226 °C.
With `CCCc1c(OCCCCCC(=O)c2ccc3cc(OC)c(OC)cc3c2)ccc(C(=O)O)c1O` the figure was 144 to 146 °C; with `C1=Cc2c(ccc3cccnc23)OC1`, 207 to 208 °C; with `NC(=O)c1ccc(C(=O)O)c(N)c1`, 276 to 278 °C.
With `COc1cc(OC)nc(Oc2cccc(Oc3nc(OC)cc(OC)n3)c2CO)n1` the figure was 122 °C.
In turn, `O=C(Nc1c(C(O)(C(F)(F)F)C(F)(F)F)ccc2ccccc12)c1ccc(F)cc1` gave a melting point of 135 to 136 °C.
The molecule `CCOC(=O)C(=O)NNc1ccc(NC(=S)NC)cc1` came in with a melting point of 168 to 169 °C.
Consider `CC(C)(C(O)c1ccc(Br)cc1)n1ncn(-c2ccc(N3CCN(c4ccc(O)cc4)CC3)cc2)c1=O` (stereo unspecified), for which the melting point was 224 °C.
The value for `O=C1C=C(O)CC(c2cc(C3CCOC3)no2)C1` (stereo unspecified) was 142 to 144 °C.
The value for `CCOC(=O)c1cn(-c2c(O)cccc2O)cn1` was 229 to 230 °C; that for `CCCCCCCCCCCCSCCOc1ccc(CCC(=O)O)cc1` was 68 to 69 °C.
The value for `CC(=O)NC[C@H]1CN(c2ccc(N3CCN(C(=O)CCC(=O)c4ccc(C(N)=O)cc4)CC3)c(F)c2)C(=O)O1` was greater than 250 °C; that for `COc1ccc(CC(=O)CCCCCBr)cc1` was 41 to 43 °C.
Take `CCCn1ncc2c(=O)[nH]c(-c3cc(C(=O)O)ccc3OCC)nc21`: the melting point is 277 to 279 °C.
With `CCCCCCCCCCCCCCCCCC(=O)NCC(C)(C)CO` the figure was 44 °C; with `COC(=O)c1ccccc1-n1c(CCl)nc2ccc(F)cc2c1=O`, 213 to 215 °C.
The value for `CCON=C(CC)C1=C(O)CC(c2ccc(NC(=O)OC)cc2)CC1=O` (stereo unspecified) was 160 to 161 °C; that for `O=c1[nH]c(=S)[nH]c(-c2ccccc2)c1Cc1c(O)ccc2ccccc12` was 253 to 255 °C; that for `CN(C)S(=O)(=O)c1cccc2c1Sc1ccc(O)cc1N2` was 208 to 210 °C.
The value for `CCC(O)(CC)[C@@H]1C[C@@H]([C@H](CC2CCCCC2)NC(=O)OC(C)(C)C)OC1=O` was 118 to 120 °C; that for `CN1CCN(Cc2c(Cl)cccc2Cl)C(C2=NCCN2)C1` (stereo unspecified) was 182 to 184 °C; that for `CCCCNC(=O)[C@@H]1C[C@]2(NC(=O)N(CCCN3CCC(O)CC3)C2=O)c2cc(F)ccc2O1` was 86 to 88 °C.
With `Nc1c(F)c(N2CCC(=NO)C2)c(F)c2c1c(=O)c(C(=O)O)cn2C1CC1`, the melting point lay in the range of 273 to 276 °C.
